Results: patent publication EP4682145A1, “BENZOHETEROCYCLIC COMPOUND, AND PREPARATION METHOD THEREFOR AND USE THEREOF” (Cascade Pharmaceuticals, Inc., priority 2023, dated 2024)

Biological target: T1, human FFAR1 (GPR40) (Homo sapiens, UniProt O14842)
T1 construct: Flag; expressed in transfected cells; host or cells: HEK293T
Assay: NFAT-RE-based reporter gene activity assay (Dual-Glo luciferase) for GPR40 agonistic activity in co-transfected HEK293T cells
Assay type: cell-based
Conditions: 4-hour treatment
Source text: The pcDNA3.0-flag-FFAR1 (GPR40) plasmid was constructed using conventional molecular cloning methods. The main steps were as follows: The full-length cDNA sequence of human FFAR1 (GPR40) (NM_005303.3) was inserted into the HindIII and XbaI restriction sites of the pcDNA3.0 vector via PCR technology, resulting in the pcDNA3.0-flag-FFAR1 (GPR40) plasmid; pGL4.30 [luc2P NFAT-RE] (# E8481) and pRL-TK (#E2241) plasmids were both purchased from Promega; the plasmids were transformed into DH5α E. coli using the CaCl2 method, further cultured and amplified, and then purified using a plasmid extraction kit (TIANGEN, # DP117) to obtain the corresponding plasmid DNA.
HEK293T cells were seeded in a 96-well plate at a density of 1 × 10^4/well one day prior to plasmid transfection. Cell transfection was performed according to the instructions of the transfection reagent FuGENE® HD (Promega, # E2311). The main steps were as follows: Taking one well as an example, plasmids pcDNA3.0-flag-FFAR1 (GPR40), pGL4.30 [luc2P NFAT-RE], and pRL-TK were added at ratios of 50 ng, 50 ng, and 5 ng, respectively, into 10 µL of Opti-MEM™ I medium (Gibco, #11058021) and mixed thoroughly; then, 0.2 µL of FuGENE® HD was added, mixed thoroughly, and allowed to stand at room temperature for 5 minutes; finally, this 10 µL mixture was added to the cell well containing 100 µL of culture medium. 24 hours after co-transfection, the compounds were serially diluted at half-logarithmic intervals with 1 µM as the highest concentration, resulting in 10 concentration gradients, which were added to the cell culture medium for a 4-hour treatment.
After 4 hours of compound treatment, the cells were assayed according to the instructions of the Dual-Glo® Luciferase Assay System (Promega, # E2940). The main steps were as follows: 50 µL of culture medium was aspirated from each well and discarded, followed by the addition of 50 µL of Dual-Glo® Luciferase Reagent, and the mixture was shaken at room temperature for 10 minutes. Then, 80 µL of the lysate reaction solution was transferred to a white opaque optiPlate-96 well plate, and the luminescence signal of Firefly luciferase (Firefly-Luc) was measured using an MD i3x multifunctional microplate reader. Subsequently, 40 µL of Dual-Glo® Stop & Glo® Reagent was added, and the mixture was shaken at room temperature for 10 minutes. Finally, the luminescence signal of Renilla luciferase (Renilla-Luc) was measured using the MD i3x multifunctional microplate reader. The ratio of Firefly-Luc/Renilla-Luc was used as the compound's agonistic activity toward GPR40, and normalization was performed using the ratio of the solvent DMSO group. A dose-response curve was fitted using a four-parameter model with GraphPad Prism 8.0 software to calculate the EC50 value.

T1 sequence (O14842 whole entry): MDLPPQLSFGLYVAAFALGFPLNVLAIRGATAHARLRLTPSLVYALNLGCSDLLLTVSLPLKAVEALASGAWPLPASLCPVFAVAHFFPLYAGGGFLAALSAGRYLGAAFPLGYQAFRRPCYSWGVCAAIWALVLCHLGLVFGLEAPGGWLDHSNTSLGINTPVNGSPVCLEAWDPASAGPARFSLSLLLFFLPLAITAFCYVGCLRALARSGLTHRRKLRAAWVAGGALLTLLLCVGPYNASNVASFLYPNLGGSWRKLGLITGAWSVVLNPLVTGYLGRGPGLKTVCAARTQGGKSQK

With `CNC(=O)c1ccc(OC)cc1N1CCC(c2oc3cc(C(CC(=O)O)C4CC4)ccc3c2-c2cnn(C(C)(C)C)c2)CC1` (stereo not drawn) [Compound 91] the EC50 was 100 to 500 nM and the “Efficacy (%)” value (class symbols) was “† (100 ≥ Efficacy (%) > 50)”.
For `COc1cccc(N2CCC(c3oc4cc([C@@H](CC(=O)O)C5CC5)ccc4c3-c3cc4cccc(F)c4[nH]3)CC2)c1` [Compound 151], the EC50 was 100 to 500 nM and the “Efficacy (%)” value (class symbols) was “†† (150 ≥ Efficacy (%) > 100)”.
With `COc1cccc(N2CCC(c3oc4cc([C@@H](CC(=O)O)C5CC5)ccc4c3COC(=O)C(C)(C)C)CC2)c1` [Compound 398] the EC50 was 100 to 500 nM and the “Efficacy (%)” value (class symbols) was “††† (Efficacy (%) > 150)”.
For `COc1ccc(F)c(N2CCC(c3oc4cc(C(CC(=O)O)C5CC5)ccc4c3-c3cccc(F)c3)CC2)c1` (stereo not drawn) [Compound 178], the EC50 was 100 to 500 nM and the “Efficacy (%)” value (class symbols) was “†† (150 ≥ Efficacy (%) > 100)”.
For `COc1cccc(N2CCC(c3oc4cc(C(CC(=O)O)C5CC5)ccc4c3-c3cnn(C)c3)CC2)c1` (stereo not drawn) [Compound 36], the EC50 was 100 to 500 nM and the “Efficacy (%)” value (class symbols) was “†† (150 ≥ Efficacy (%) > 100)”.
With `COc1cccc(N2CCC(c3oc4cc([C@@H](CC(=O)O)C5CC5)ccc4c3C/C=C/C3CC3)CC2)c1` [Compound 375] the EC50 was 100 to 500 nM and the “Efficacy (%)” value (class symbols) was “†† (150 ≥ Efficacy (%) > 100)”.
`CC(C)(C)c1ccc(-c2c(C3CCN(c4ccc5c(c4)OCCO5)CC3)oc3cc(C(CC(=O)O)C4CC4)ccc23)cc1` (stereo not drawn) [Compound 215] was tested, and the EC50 was 100 to 500 nM and the “Efficacy (%)” value (class symbols) was “†† (150 ≥ Efficacy (%) > 100)”.
In the case of `COc1cccc(N2CCC(c3oc4cc([C@@H](CC(=O)O)C5CC5)ccc4c3C(=O)Nc3cc(F)ccc3Cl)CC2)c1` [Compound 266], the EC50 is reported as < 10 nM and the “Efficacy (%)” value (class symbols) is reported as “††††”.
For `CCCCOC(C)c1c(C2CCN(c3cccc(OC)c3)CC2)oc2cc([C@@H](CC(=O)O)C3CC3)ccc12` (stereo partly drawn) [Compound 410], the EC50 was 100 to 500 nM and the “Efficacy (%)” value (class symbols) was “††† (Efficacy (%) > 150)”.
With `CCc1cccc(N2CCC(c3oc4cc(C(CC(=O)O)C5CC5)ccc4c3-c3ccc(C(C)(C)C)cc3)CC2)c1` (stereo not drawn) [Compound 6] the EC50 was > 500 nM and the “Efficacy (%)” value (class symbols) was “†† (150 ≥ Efficacy (%) > 100)”.
`COc1cccc(N2CCC(c3oc4cc(C(CC(=O)O)C5CC5)ccc4c3-c3nnc(C(C)(C)CN4CCCCC4)o3)CC2)c1` (stereo not drawn) [Compound 137] was tested, and the EC50 was 10 to 100 nM and the “Efficacy (%)” value (class symbols) was “††† (Efficacy (%) > 150)”.
For `COc1cccc(N2CCC(c3oc4cc(C(CC(=O)O)C5CC5)ccc4c3C(=O)Nc3ccccc3C(F)(F)F)CC2)c1` (stereo not drawn) [Compound 237], the EC50 was 10 to 100 nM and the “Efficacy (%)” value (class symbols) was “†† (150 ≥ Efficacy (%) > 100)”.
In the case of `COc1cccc(N2CCC(c3oc4cc([C@@H](CC(=O)O)C5CC5)ccc4c3C(=O)Nc3cc(C(C)=O)ccc3Cl)CC2)c1` [Compound 283], the EC50 is reported as 10 to 100 nM and the “Efficacy (%)” value (class symbols) is reported as “††† (Efficacy (%) > 150)”.
`COc1cccc(N2CCC(c3oc4cc(C(CC(=O)O)C5CC5)ccc4c3C(=O)Nc3cc(-c4ccccc4)nn3C)CC2)c1` (stereo not drawn) [Compound 302] was tested, and the EC50 was 100 to 500 nM and the “Efficacy (%)” value (class symbols) was “† (100 ≥ Efficacy (%) > 50)”.
`COc1cccc(N2CCC(c3oc4cc(C(CC(=O)O)C5CC5)ccc4c3C(=O)Nc3ccc(F)cc3F)CC2)c1` (stereo not drawn) [Compound 255] was tested, and the EC50 was 100 to 500 nM and the “Efficacy (%)” value (class symbols) was “†† (150 ≥ Efficacy (%) > 100)”.
With `COc1cccc(N2CCC(c3oc4cc([C@@H](CC(=O)O)C5CC5)ccc4c3-c3nc4ccccn4n3)CC2)c1` [Compound 153] the EC50 was 100 to 500 nM and the “Efficacy (%)” value (class symbols) was “††† (Efficacy (%) > 150)”.
With `CC(C)(C)c1cccc(-c2c(-c3ccccc3)oc3cc(C(CC(=O)O)C4CC4)ccc23)c1` (stereo not drawn) [Compound 2] the EC50 was > 500 nM and the “Efficacy (%)” value (class symbols) was “†† (150 ≥ Efficacy (%) > 100)”.
In the case of `Cc1cccc(-c2c(C3CCN(c4ccc5c(c4)OCO5)CC3)oc3cc(C(CC(=O)O)C4CC4)ccc23)c1` (stereo not drawn) [Compound 210], the EC50 is reported as 100 to 500 nM and the “Efficacy (%)” value (class symbols) is reported as “†† (150 ≥ Efficacy (%) > 100)”.
With `COc1cccc(N2CCC(c3oc4cc(C(CC(=O)O)C5CC5)ccc4c3C(=O)Nc3ncns3)CC2)c1` (stereo not drawn) [Compound 293] the EC50 was 100 to 500 nM and the “Efficacy (%)” value (class symbols) was “†† (150 ≥ Efficacy (%) > 100)”.
In the case of `COc1ccc(F)c(N2CCC(c3oc4cc(C(CC(=O)O)C5CC5)ccc4c3C(=O)Nc3ccc(F)cc3)CC2)c1` (stereo not drawn) [Compound 317], the EC50 is reported as 100 to 500 nM and the “Efficacy (%)” value (class symbols) is reported as “† (100 ≥ Efficacy (%) > 50)”.
For `COc1cccc(N2CCC(c3oc4cc([C@H](C5CC5)C(F)C(=O)O)ccc4c3-c3cnn(C(C)(C)C)c3)CC2)c1` (stereo partly drawn) [Compound 54], the EC50 was 10 to 100 nM and the “Efficacy (%)” value (class symbols) was “†† (150 ≥ Efficacy (%) > 100)”.
For `COc1ccc(F)c(N2CCC(c3oc4cc(C(CC(=O)O)C5CC5)ccc4c3CC3=CCCC3)CC2)c1` (stereo not drawn) [Compound 383], the EC50 was 100 to 500 nM and the “Efficacy (%)” value (class symbols) was “††† (Efficacy (%) > 150)”.
In the case of `CCCCC[C@H]1CC[C@H](c2nnc(-c3c(C4CCN(c5cccc(OC)c5)CC4)oc4cc(C(CC(=O)O)C5CC5)ccc34)o2)CC1` (relative stereo) [Compound 138], the EC50 is reported as 100 to 500 nM and the “Efficacy (%)” value (class symbols) is reported as “†† (150 ≥ Efficacy (%) > 100)”.
With `COc1cccc(N2CCC(c3oc4cc([C@@H](CC(=O)O)C5CC5)ccc4c3CN(C(=O)C(C)(C)C)c3cccc(Cl)c3)CC2)c1` [Compound 448] the EC50 was 100 to 500 nM and the “Efficacy (%)” value (class symbols) was “†† (150 ≥ Efficacy (%) > 100)”.
In the case of `COc1cccc(N2CCC(c3oc4cc([C@@H](CC(=O)O)C5CC5)ccc4c3C(=O)N(C)c3cc(C(F)(F)F)ccc3Cl)CC2)c1` [Compound 281], the EC50 is reported as 100 to 500 nM and the “Efficacy (%)” value (class symbols) is reported as “†† (150 ≥ Efficacy (%) > 100)”.
For `CC(C)(C)c1ccc(-c2c(C3CCN(c4ccc5c(c4)OCC5)CC3)oc3cc(C(CC(=O)O)C4CC4)ccc23)cc1` (stereo not drawn) [Compound 208], the EC50 was 100 to 500 nM and the “Efficacy (%)” value (class symbols) was “††† (Efficacy (%) > 150)”.
With `COc1cccc(N2CCC(c3oc4cc([C@@H](CC(=O)O)C5CC5)ccc4c3CC=C(C)C)CC2)c1` [Compound 374] the EC50 was 10 to 100 nM and the “Efficacy (%)” value (class symbols) was “†† (150 ≥ Efficacy (%) > 100)”.
For `COc1ccc(F)c(N2CCC(c3oc4cc(C(CC(=O)O)C5CC5)ccc4c3-c3ccccc3C)CC2)c1` (stereo not drawn) [Compound 159], the EC50 was 100 to 500 nM and the “Efficacy (%)” value (class symbols) was “†† (150 ≥ Efficacy (%) > 100)”.
In the case of `Cc1cc(OCCCS(C)(=O)=O)cc(C)c1-c1cccc(COc2ccc3c(c2)OC[C@H]3CC(=O)O)c1` [TAK875, reference compound], the “Efficacy (%)” value (numeric values of positive controls) is reported as 65%.
For `CC(C)(C)c1ccc(-c2c(C3CCN(c4cccc(S(C)(=O)=O)c4)CC3)oc3cc(C(CC(=O)O)C4CC4)ccc23)cc1` (stereo not drawn) [Compound 27], the EC50 was 100 to 500 nM and the “Efficacy (%)” value (class symbols) was “† (100 ≥ Efficacy (%) > 50)”.
With `COc1cccc(N2CCC(c3oc4cc(C(CC(=O)O)C5CC5)ccc4c3-c3cn(C(C)C)cn3)CC2)c1` (stereo not drawn) [Compound 104] the EC50 was > 500 nM and the “Efficacy (%)” value (class symbols) was “†† (150 ≥ Efficacy (%) > 100)”.
For `COc1cccc(N2CCC(c3oc4cc(C(CC(=O)O)C5CC5)ccc4c3C(=O)NC34CC5CC(CC(C5)C3)C4)CC2)c1` (stereo not drawn) [Compound 349], the EC50 was 100 to 500 nM and the “Efficacy (%)” value (class symbols) was “†† (150 ≥ Efficacy (%) > 100)”.
`COc1cccc(N2CCC(c3oc4cc(C(CC(=O)O)C5CC5)ccc4c3-c3cc(C(C)(C)C)no3)CC2)c1` (stereo not drawn) [Compound 115] was tested, and the EC50 was ≤ 10 nM and the “Efficacy (%)” value (class symbols) was “†† (150 ≥ Efficacy (%) > 100)”.
In the case of `COc1cccc(N2CCC(c3oc4cc(C(CC(=O)O)C5CC5)ccc4c3-c3cnn(C(C)(C)C)c3)CC2)c1Cl` (stereo not drawn) [Compound 88], the EC50 is reported as 100 to 500 nM and the “Efficacy (%)” value (class symbols) is reported as “†† (150 ≥ Efficacy (%) > 100)”.
For `COc1cccc(N2CCC(c3oc4cc(C(CC(=O)O)C5CC5)ccc4c3-c3cn(C)nn3)CC2)c1` (stereo not drawn) [Compound 120], the EC50 was > 500 nM and the “Efficacy (%)” value (class symbols) was “†† (150 ≥ Efficacy (%) > 100)”.
